According to patent US20160120858A1 (ACADEMIA SINICA, priority 2014, published 2016):
Entries after “also recorded” stand apart in the source; their conditions may differ.

How the values were obtained:
Tbr1^+/− mice = experiment: Three-chamber social interaction assay, Tbr1 mice; assay type: in vivo, mouse; conditions: 30 mg/kg, 3 hours before test
From the text: All mice were backcrossed into a C57BL/6 background, and housed and bred in a mouse vivarium at the Korea Advanced Institute of Science and Technology (KAIST, Shank2^−/−mice) and at Academia Sinica (Tbr1^+/− mice). Pups were kept with the dam until weaning at postnatal day 21. After weaning, animals were group housed in mixed-genotype groups of 3 to 5 mice per cages, and randomly subjected to electrophysiological and behavioral experiments. Animals at 3 to 5 weeks of age were used for electrophysiological experiments; male animals at 2 to 4 months of age were used for behavioral assays. For TFL-Zn staining, male animals at 8 weeks (for Shank2^−/−mice) were used. Wild-type littermates were used as controls.
The injection was performed 2 hours before (Shank2^−/− mice and wild-type littermates), or 3 hours before (Tbr1^+/− mice and wild-type littermates) behavioral assays at the discretion of the facility.
Testing was conducted in dedicated behavioral test rooms during the light phase (three-chamber test) and the dark phase (repetitive behaviors and open field test).
In short, the assay consisted of three phases of 10 minutes duration: habituation, social interaction (Stranger1 vs. Object), and social novelty recognition (Stranger 1 vs. Stranger 2). Exploration was defined as each instance in which wild-type or mutant mouse tries to sniff Object/Stranger, or orients its nose towards and come close to object/stranger. Individual movement tracks were analyzed by Ethovision 10.0 (Noldus) and modified by custom-designed software MatLab (Mathworks) to generate heat maps. Time spent in exploration was analyzed by the researcher who was blinded to the subject genotype (in Shank2 mice), or by using the Smart Video Tracking System (Panlab, in Tbr1 mice). In addition to exploration time, the preference index, which represents a numerical difference between time spent exploring the targets (Stranger1 vs. Object, or Stranger 2 vs. Stranger 1) divided by total time spent exploring both targets, as described previously.

Shank2^−/− mice = experiment: Open field test; assay type: in vivo, mouse; conditions: 30 mg/kg i.p.; for Locomotor activity (hyperactivity, excessive action) / Time spent in the center region (anxiety-like behavior): 30 mg/kg
Experimental: The injection was performed 2 hours before (Shank2^−/− mice and wild-type littermates), or 3 hours before (Tbr1^+/− mice and wild-type littermates) behavioral assays at the discretion of the facility. A within-subjects design was designed with a one week washout period (FIG. 8), and divided animals into two groups, vehicle-first and clioquinol-first group, to rule out carryover effects. Each mouse received a single acute dose of vehicle or clioquinol, and underwent a single behavioral task, one task per week. Testing was conducted in dedicated behavioral test rooms during the light phase (three-chamber test) and the dark phase (repetitive behaviors and open field test). The size of the open field box was 40×40×40 cm, and the center zone line was 13.3 cm apart from the edge. Mice were placed in the center in the beginning of the test, and mouse movements were recorded with a video camera for 60 minutes, and analyzed by Ethovision 10.0 (Noldus).

NMDAR = experiment: NMDA-fEPSP extracellular recordings, hippocampal slices; assay type: cell-based, mouse; conditions: for NMDAR function (NMDA-fEPSPs) at ZnT3^−/− synapses: ZnT3^−/− hippocampal SC-CA1 synapses
Experimental: For electrophysiological experiments, sagittal hippocampal slices (400 uM thick for extracellular, 300 uM thick for intracellular recordings) of Shank2^−/− mice (or ZnT3^−/− mice) and their wild-type littermates were prepared using a vibratome (Leica VT1200) in ice-cold dissection buffer containing (in mM) 212 sucrose, 25 NaHCO3, 5 KCl, 1.25 NaH2PO4, 0.5 CaCl2, 3.5 MgSO4, 10 D-glucose, 1.25 L-ascorbic acid, and 2 Na-pyruvate bubbled with 95% 02/5% CO2. CA3 was removed to prevent epileptiform activity. Slices were restored for 1 hour in 32° C. in a normal artificial CSF (ACSF) (In units of mM: 124 NaCl, 2.5 kCl, 1 NaH2PO4, 25 NaHCO3, 10 glucose, 2 CaC12, 2 Mg504 oxidized by 95% 02/5% CO2) For the recording, a single slice was moved to and maintained in submerged-type chamber at 28° C., continuously perfused with ACSF (2 mL/minute) saturated with 95% 02/5% CO2. Stimulation and recording pipettes were pulled from borosilicate glass capillaries (Harvard Apparatus) using a micropipette electrode puller (Narishege).
For extracellular recordings, mouse hippocampal slices at the age of postnatal day 21 to 35 were used. Field excitatory postsynaptic potentials (fEPSPs) were recorded in the stratum radiatum of the hippocampal CA1 region using pipettes filled with ACSF (1 MΩ). fEPSP was amplified (Multiclamp 700B, Molecular Devices), and digitized (Digidata 1440A, Molecular
Devices) for measurements. The Schaffer collateral pathway was stimulated every 20 seconds with pipettes filled with ACSF (0.3 to 0.5 MΩ). The stimulation intensity was adjusted to yield a half-maximal response, and three successive responses were averaged and expressed relative to the normalized baseline. To induce LTP, high frequency stimulation (100 Hz, 1 s) was applied after a stable baseline was acquired. […] To isolate NMDAR-mediated fEPSPs, ACSF containing 2 mM calcium, 0.1 mM magnesium, and 6,7-dinitroquinoxaline-2,3-dione (10 uM, DNQX, Tocris), which inhibits AMPAR-mediated EPSPs, were used.

## Oc1c(I)cc(Cl)c2cccnc12 [clioquinol, 5-Chloro-7-Iodo-8-Hydroxyquinoline]
Tbr1^+/− mice; Tbr1^+/− (HT) mice
  Social novelty recognition: had no effect on social novelty recognition
Tbr1^+/− mice; Tbr1^+/− (HT) mice, listed as CQ
  Social novelty recognition: fails to enhance social novelty recognition; also recorded: has no effect on social novelty recognition
Tbr1^+/− mice; wild-type mice
  Social novelty recognition: had no effect on social novelty recognition
Tbr1^+/− mice; wild-type mice, listed as CQ
  Social novelty recognition: has no effect
Shank2^−/− mice; Shank2^−/− mice
  Locomotor activity (hyperactivity, excessive action): did not weaken
  Time spent in the center region (anxiety-like behavior): had no effect on the center-region time
Shank2^−/− mice; Shank2^−/− mice, listed as CQ
  Time spent in the center region (anxiety-like behavior): has no effect on the time spent in the center region
Shank2^−/− mice; Shank2^−/− mice, listed as Clioquinol
  Locomotor activity (hyperactivity, excessive action): did not improve excessive action
Shank2^−/− mice; wild-type mice
  Locomotor behavior: had no effect
Shank2^−/− mice; wild-type mice, listed as CQ
  Time spent in the center region (anxiety-like behavior): has no effect on the time spent in the center region
Shank2^−/− mice; wild-type mice, listed as Clioquinol
  Time spent in the center region (anxiety-like behavior): had no effect
NMDAR; CQ 4 uM, 20 minutes
  NMDAR function (NMDA-fEPSPs) in the presence of PP3: effectively enhances NMDAR function
NMDAR; CQ 4 uM, 20 minutes, Ca-EDTA 2 mM throughout recordings
  NMDAR function (NMDA-fEPSPs) in the presence of Ca-EDTA: fails to enhance NMDAR function
NMDAR; CQ 4 uM, 20 minutes, PP2 10 uM throughout recordings
  NMDAR function (NMDA-fEPSPs) in the presence of PP2: fails to enhance NMDAR function
NMDAR; CQ 4 uM, 20 minutes, SU6656 10 uM throughout recordings
  NMDAR function (NMDA-fEPSPs) in the presence of SU6656: fails to enhance NMDAR function
NMDAR; CQ 4 uM, 20 minutes, TPEN 25 uM throughout recordings
  NMDAR function (NMDA-fEPSPs) in the presence of TPEN: fails to enhance NMDAR function
NMDAR; Shank2^−/− SC-CA1 synapses, clioquinol for 20 minutes
  Initial slopes of NMDA-fEPSPs: ~150 % of baseline levels
NMDAR; WT and KO slices
  NMDAR function (NMDA-fEPSPs) in the presence of cuprizone: enhances NMDAR function
NMDAR; WT and Shank2^−/− SC-CA1 synapses, 4 uM, 20 minutes
  NMDAR function (NMDA-fEPSPs): enhances NMDAR function
NMDAR
  NMDAR function (NMDA-fEPSPs) at ZnT3^−/− synapses: had no effect on NMDAR activity
NMDAR; listed as CQ
  NMDAR function (NMDA-fEPSPs) at ZnT3^−/− synapses: fails to enhance NMDAR function
